Structures can show the parent of a compound that is named as a salt. Where two headings read alike, the source gives them in different places.
How the values were obtained:
S1P1 [1] = target: T1, S1P1 (Homo sapiens, UniProt P21453); assay: Receptor binding assay, [33P]sphingosine 1-phosphate competition, membranes of CHO cells expressing S1P1
Description: (§1) Membranes were prepared from CHO cells expressing S1P1 or S1P3 for use in ligand binding studies. Cells were suspended in 50 mM TRIS, pH 7.4, 2 mM EDTA, 250 mM Sucrose (buffer A) and 1× Complete protease inhibitor cocktail (Roche), and disrupted at 4° C. by N2 decompression using a cell disruption bomb (Parr Instrument). Following centrifugation at 1000 RPM for 10 min at 4° C., the supernatant was diluted (2×) in buffer A and centrifuged again at 19000 RPM for 75 min at 4° C. The pellet was then suspended in 10 mM HEPES, pH 7.4, 1 mM EDTA, 250 mM Sucrose (Buffer B), and 1× Complete EDTA-free protease inhibitor cocktail and homogenized using a potter. Membranes were flash frozen in liquid N2 and stored at −80° C.
(§2) [33P]sphingosine 1-phosphate (3000 Ci/mmol; American Radiolabeled Chemicals, Inc.) was added to test compounds in 20% DMSO by competition. Membranes and WGA SPA beads (GE Healthcare) were added to give a final volume of 100 μl in 96-well plates or 50 μl in 384-well plates with assay concentrations of 30 pM or 15 pM [33P]sphingosine 1-phosphate (respectively for S1P1 or S1P3), 50 mM HEPES, pH 7.5, 5 mM MgCl2, 100 mM NaCl, 0.4% fatty acid-free BSA, 1-5 μg/well of proteins in 96-well plates vs 0.6-1 μg/well of proteins in 384-well plates and 100 μg/well of WGA SPA beads in 96-well plates vs 75 μg/well of WGA SPA beads in 384-well plates. Binding was performed for 60 min at RT on a shaker and bound radioactivity was measured on a PerkinElmer 1450 MicroBeta counter. Triplicate samples were averaged and normalized as percentage of inhibition relative to total binding (only DMSO in well) and non specific binding (1000-fold excess of unlabeled S1P). Binding data were analyzed using the GraphPad Prism program or Genedata software.
(§3) The “potency” or the “activity” of the compounds is determined by the Ki values as evaluated in one of the above described binding assay, 96 or 384 well plates.
Target sequence in this assay (P21453 whole entry, species assumed): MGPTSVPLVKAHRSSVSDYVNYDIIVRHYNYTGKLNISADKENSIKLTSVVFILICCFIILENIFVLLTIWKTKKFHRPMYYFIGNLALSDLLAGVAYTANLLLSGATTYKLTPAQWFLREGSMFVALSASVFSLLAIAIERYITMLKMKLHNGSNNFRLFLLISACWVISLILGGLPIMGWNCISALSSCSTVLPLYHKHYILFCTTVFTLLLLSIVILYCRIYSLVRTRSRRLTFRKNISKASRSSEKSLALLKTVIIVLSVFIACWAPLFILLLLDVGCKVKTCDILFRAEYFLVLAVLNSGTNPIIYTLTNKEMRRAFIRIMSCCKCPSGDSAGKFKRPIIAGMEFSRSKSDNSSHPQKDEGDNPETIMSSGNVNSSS

S1P3 = S1P3 (Homo sapiens, UniProt Q99500); assay: Receptor binding assay, [33P]sphingosine 1-phosphate competition, membranes of CHO cells expressing S1P3; details: 384 well plate; read-out: S1P3 Binding Ki [M] (384 well plate)
Description: as §1, §2, §3

S1P1 [2] = target: T1, S1P1; assay: S1P1 internalization assay in S1P1-U2OS cells (cell imaging); assay type: cell-based; design: host or cells: U2OS (human bone osteosarcoma epithelial cells); details: U2OS cells expressing S1P1-EGFP, 384-well format
Description: Cellular Functional Assays: Internalization of Sphinqosine-1-phosphate Receptor 1 (S1P1) in a Human Cell Line (U2OS) in a 384-Well Format Using a Cell Imaging Analysis.
The S1P1 internalization assay was performed in 384 well plates (Corning 384 black with clear bottom 3712) using S1P1-U2OS cells from BioImage (C039A), a human epithelial cell line (Human Bone Osteosarcoma Epithelial Cells). These cells expressed the human S1P1 Receptor fused to the green fluorescent protein (EGFP). A standard CMV promoter (cytomegalovirus promoter) controls the expression of S1P1-EGFP and continuous expression was maintained by addition of geneticin to the culture medium.
S1P1 Receptor desensitization induced the internalization of the membrane-localized S1P-EGFP fusion protein to endosomes, which can be monitored by cell imaging analysis.
The cells are plated in low serum medium (Dulbecco's Modified Eagle Medium (DMEM) with Glutamax-1 and high glucose, 1% Penicillin/Streptomycin, 1% Fetal Calf Serum (FCS), 0.5 mg/ml Geneticin) overnight.
The next day, S1P1-U2OS cells are incubated in 20 μl serum free medium (DMEM with Glutamax-1 and high glucose, 0.1% of fatty-acid free Bovin Serum Albumin (BSA), 10 mM, N′-2-Hydroxyethylpiperazine-N′-2 ethanesulphonic acid (HEPES) 1M) for 2 hours at 37° C./5% CO2. The cells are then treated with 4 μl compounds/agonists (6×/3% DMSO) for a total volume of 24 μl, and plates are incubated for 1 hour at 37° C./5% CO2.
S1P1-U2OS cells are fixed with 25 μl Paraformaldehyde 8% and stained with Hoechst 33345 dye (1:1000) for 20 minutes.
They were then washed 3 times with Phosphate Buffered Saline (PBS) and plates are sealed. The internalization of the receptor S1P1-EGFP is measured on Cellomics by calculating the “spot count per object” (“object” corresponds to nuclear and “spot” corresponds to S1P1-EGFP receptor). Internalization data were observed thanks to vHCS View and analyzed using Genedata® software.
Target sequence in this assay (P21453 whole entry): as the sequence (P21453 whole entry, species assumed) above

[3] = 384 well plate, read-out: S1P1 Binding Ki [M] (384 well plate)
[4] = 96 well plate, read-out: S1P1 Binding Ki [M] (96 well plate)

Sequence of S1P3 (Q99500 whole entry, species assumed): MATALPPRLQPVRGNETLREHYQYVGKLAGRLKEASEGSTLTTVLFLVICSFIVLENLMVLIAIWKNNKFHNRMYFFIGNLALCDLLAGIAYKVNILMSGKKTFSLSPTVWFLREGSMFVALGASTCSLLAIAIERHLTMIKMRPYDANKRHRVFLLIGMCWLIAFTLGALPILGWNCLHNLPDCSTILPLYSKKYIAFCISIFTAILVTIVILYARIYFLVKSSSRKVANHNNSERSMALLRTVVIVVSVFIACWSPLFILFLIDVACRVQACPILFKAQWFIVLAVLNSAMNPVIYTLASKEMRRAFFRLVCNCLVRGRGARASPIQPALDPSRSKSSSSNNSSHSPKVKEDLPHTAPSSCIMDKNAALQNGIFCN

Row | SMILES | Ki (S1P1 [1]; [3]) [M] | Ki (S1P3) [M] | EC50 (S1P1 [2]) [nM] | Ki (S1P1 [1]; [4]) [M]
1 | Cc1ccccc1-c1ccc(-c2nc(-c3ccc(CN(C)[C@@H](C)C(=O)O)c(F)c3)no2)cc1C(F)(F)F [Example 50, N-(2-fluoro-4-{5-[2′-methyl-2-(trifluoromethyl)biphenyl-4-yl]-1,2,4-oxadiazol-3-yl}benzyl)-N-methylalanine, hydrochloride salt] | 3.02e-09 | 6.61e-07 | 25.8 | –
2 | Cc1ccccc1-c1ccc(-c2nc(-c3ccc(C(C)NCC(=O)O)cc3)no2)cc1C(F)(F)F (centres unmarked) [Example 32, N-[1-(4-{5-[2′-methyl-2-(trifluoromethyl)biphenyl-4-yl]-1,2,4-oxadiazol-3-yl}phenyl)ethyl]glycine, hydrochloride salt] | 1.69e-09 | 4.33e-07 | 7.58 | –
3 | Cc1ccccc1-c1ccc(-c2nc(-c3cccc(CCN[C@@H](C)C(=O)O)c3)no2)cc1C(F)(F)F [Example 94, (2S)-2-(3-(5-(2′-methyl-2-(trifluoromethyl)biphenyl-4-yl)-1,2,4-oxadiazol-3-yl)phenethylamino)propanoic acid] | 1.01e-09 | 7.4e-08 | 2.91 | 1.85e-10
4 | Cc1ccccc1-c1ccc(-c2nc(-c3ccc(C(CO)NCC(=O)O)cc3)no2)cc1C(F)(F)F (centres unmarked) [Example 52, 2-(2-Hydroxy-1-(4-(5-(2′-methyl-2-(trifluoromethyl)biphenyl-4-yl)-1,2,4-oxadiazol-3-yl)phenyl)ethylamino)acetic acid] | 3.76e-09 | 1.08e-06 | 10.2 | –
5 | Cc1ccccc1-c1ccc(-c2nc(-c3ccc(CN(C)C(C)(C)C(=O)O)cc3)no2)cc1C(F)(F)F [Example 56] | 4.13e-09 | 8.54e-06 | 57.8 | –
6 | COCc1cc(-c2nc(-c3ccc(CN(C)[C@@H](C)C(=O)O)c(F)c3)no2)ccc1-c1ccccc1C [Example 44, N-(2-fluoro-4-{5-[2-(methoxymethyl)-2′-methylbiphenyl-4-yl]-1,2,4-oxadiazol-3-yl}benzyl)-N-methylalanine, hydrochloride salt] | 1.58e-09 | 8.69e-07 | 6.29 | –
7 | Cc1ccccc1-c1ccc(-c2nc(-c3ccc(CNCC(C)C(=O)O)cc3)no2)cc1C(F)(F)F (centres unmarked) [Example 63] | 1.15e-09 | 2.02e-07 | 3.47 | –
8 | Cc1ccccc1-c1ccc(-c2nc(-c3cccc(CN(C)C(C(=O)O)C(C)C)c3)no2)cc1C(F)(F)F (centres unmarked) [Example 85] | 5.26e-09 | 7.93e-07 | 47.9 | –
9 | Cc1ccccc1-c1ccc(-c2nc(-c3ccc(CCN[C@H](C(=O)O)C(C)C)cc3)no2)cc1C(F)(F)F [Example 91, (2S)-3-methyl-2-(4-(5-(2′-methyl-2-(trifluoromethyl)biphenyl-4-yl)-1,2,4-oxadiazol-3-yl)phenethylamino)butanoic acid] | 8.12e-09 | 7.36e-06 | 34.5 | –
10 | Cc1ccccc1-c1ccc(-c2nc(-c3cccc(C(C)N(C)[C@@H](C)C(=O)O)c3)no2)cc1C(F)(F)F (some centres unmarked) [Example 29, N-methyl-N-[1-(3-{5-[2′-methyl-2-(trifluoromethyl)biphenyl-4-yl]-1,2,4-oxadiazol-3-yl}phenyl)ethyl]alanine, hydrochloride salt] | 5.95e-10 | 5.84e-08 | 46 | –
11 | Cc1cc(-c2nc(-c3cccc(C(C)NCC(=O)O)c3)no2)ccc1-c1ccccc1C(F)(F)F (centres unmarked) [Example 38, N-[1-(3-{5-[2-methyl-2′-(trifluoromethyl)biphenyl-4-yl]-1,2,4-oxadiazol-3-yl}phenyl)ethyl]glycine, hydrochloride salt] | 2.84e-09 | 1.43e-06 | 77.9 | –
12 | Cc1ccccc1-c1ccc(-c2nc(-c3ccc(CN[C@H](C(=O)O)[C@@H](C)O)cc3)no2)cc1C(F)(F)F [Example 61] | 4.27e-09 | 1.15e-06 | 23.3 | –
13 | Cc1ccccc1-c1ccc(-c2nc(-c3ccc(C(C)N(C)[C@@H](C)C(=O)O)cc3)no2)cc1C(F)(F)F (some centres unmarked) [Example 39, N-methyl-N-[1-(4-{5-[2′-methyl-2-(trifluoromethyl)biphenyl-4-yl]-1,2,4-oxadiazol-3-yl}phenyl)ethyl]alanine] | 4.34e-09 | 3.18e-06 | 20.9 | –
14 | Cc1ccccc1-c1ccc(-c2nc(-c3ccc([C@H](C)NCC(=O)O)cc3)no2)cc1C(F)(F)F [Example 21, N-[(1S)-1-(4-{5-[2′-methyl-2-(trifluoromethyl)biphenyl-4-yl]-1,2,4-oxadiazol-3-yl}phenyl)ethyl]glycine, hydrochloride salt] | 2.19e-09 | 1.21e-06 | 11.2 | –
15 | Cc1ccccc1-c1ccc(-c2nc(-c3ccc([C@H](C)N[C@H](C)C(=O)O)cc3)no2)cc1C(F)(F)F [Example 17, N-[(1S)-1-(4-{5-[2′-methyl-2-(trifluoromethyl)biphenyl-4-yl]-1,2,4-oxadiazol-3-yl}phenyl)ethyl]-D-alanine, hydrochloride salt] | 2.01e-09 | 2.25e-06 | 21 | –
16 | Cc1ccccc1-c1ccc(-c2nc(-c3ccc(CNC4(C(=O)O)CCC4)cc3)no2)cc1C(F)(F)F [Example 66] | 3.86e-09 | 9.31e-07 | 27.6 | –
17 | Cc1ccccc1-c1ccc(-c2nc(-c3cc(F)cc(CN[C@@H](CC(C)C)C(=O)O)c3)no2)cc1C(F)(F)F [Example 12, N-(3-fluoro-5-{5-[2′-methyl-2-(trifluoromethyl)biphenyl-4-yl]-1,2,4-oxadiazol-3-yl}benzyl)leucine, hydrochloride salt] | 2.58e-09 | 6.43e-07 | 28.9 | –
18 | Cc1cc(-c2nc(-c3ccc(C(C)NCC(=O)O)cc3)no2)ccc1-c1ccccc1C(F)(F)F (centres unmarked) [Example 23, N-[1-(4-{5-[2-methyl-2′-(trifluoromethyl)biphenyl-4-yl]-1,2,4-oxadiazol-3-yl}phenyl)ethyl]glycine, hydrochloride salt] | 1.71e-09 | 7.05e-06 | 21.3 | –
19 | Cc1ccccc1-c1ccc(-c2nc(-c3ccc(CNC4(C(=O)O)CCCC4)cc3)no2)cc1C(F)(F)F [Example 59] | 6.83e-09 | > 2e-05 | 44.4 | –
20 | CCN(Cc1cccc(-c2noc(-c3ccc(-c4ccccc4C)c(C(F)(F)F)c3)n2)c1)[C@H](CO)C(=O)O [Example 87, (R)-2-(Ethyl-{3-[5-(2′-methyl-2-trifluoromethyl-biphenyl-4-yl)-[1,2,4]oxadiazol-3-yl]-benzyl}-amino)-3-hydroxy-propionic acid] | 2.29e-09 | 4.68e-07 | 24.9 | –
21 | Cc1ccccc1-c1ccc(-c2nc(-c3ccc(CCN[C@@H](C)C(=O)O)cc3)no2)cc1C(F)(F)F [Example 92] | 6.94e-09 | 1.24e-06 | 29.5 | –
22 | Cc1ccccc1-c1ccc(-c2nc(-c3ccc(CN[C@H](C)C(=O)O)cc3)no2)cc1C(F)(F)F [Example 68] | 2.47e-09 | 7.57e-06 | 20.5 | –
23 | Cc1ccccc1-c1ccc(-c2nc(-c3cccc(CCN[C@H](C)C(=O)O)c3)no2)cc1C(F)(F)F [Example 95] | 8.46e-10 | 1.12e-07 | 4.25 | 2.15e-10
